According to patent US8633315B2, “Substituted hydroxyethyl amine compounds as beta-secretase modulators and methods of use” (Amgen Inc., priority 2007, dated 2014):

Columns and labels:
[1] = test system: Cells stably expressing Amyloid Precursor Protein (APP); assay: In vitro BACE cell-based assay (HEK cell assay): Aβ40 in conditioned medium by sandwich ELISA; settings: Aβ40 in conditioned medium after 24 h incubation
Method: In Vitro BACE Cell-Based Assay:
The cell-based assay measures inhibition or reduction of Aβ40 in conditioned medium of test compound treated cells expressing amyloid precursor protein.
Cells stably expressing Amyloid Precursor Protein (APP) were plated at a density of 40K cells/well in 96 well plates (Costar). The cells were cultivated for 24 hours at 37° C. and 5% CO2 in DMEM supplemented with 10% FBS. The test compounds were then added to cells in 10-point dose response concentrations with the starting concentration being either 100 μM or 10 μM. The compounds were diluted from stock solutions in DMSO and the final DMSO concentration of the test compounds on cells was 0.1%. After 24 h of incubation with the test compounds the supernatant conditioned media was collected and the Aβ 40 levels were determined using a sandwich ELISA. The IC50 of the compound was calculated from the percent of control or percent inhibition of Aβ 40 as a function of the concentration of the test compound.
The sandwich ELISA to detect Aβ 40 was performed in 96 well microtiter plates, which were pre-treated with goat anti-rabbit IgG (Pierce). The capture and detecting antibody pair that were used to detect Aβ 40 from cell supernatants were affinity purified pAb40 (Biosource) and biotinylated 6E10 (Signet Labs Inc.), respectively. The optimal concentration for the pAb40 antibody was 3 μg/ml in Superblock/TBS (Pierce) that was supplemented with 0.05% Tween 20 (Sigma). Optimal concentration for the detection antibody 6E10-biotinylated was 0.5 μg/ml in Superblock/TBS (Pierce) that had been supplemented with 2% normal goat serum and 2% normal mouse serum.
Cellular supernatants were incubated with the capture antibody for 3 h at 4° C., followed by 3 wash steps in TBS-tween (0.05%). The detecting antibody incubation was for 2 h at 4° C., again followed by the wash steps as described previously. The final readout of the ELISA is Time-Resolved Fluorescence (counts per minute) using Delfia reagents Streptavidin-Europium and Enhancement solutions (Perkin Elmer) and the Victor 2 multilabel counter (Perkin Elmer).
Of the compounds tested, in-the cell-based assay, data for each of Examples 33-156 is provided in Table 1 and Examples 208-246 are provided in Table 4.

BACE1 = BACE1 (Homo sapiens, UniProt P56817); assay: In vitro enzymatic BACE FRET (fluorescence resonance energy transfer) assay; assay type: biochemical
Sequence of BACE1 (P56817 46-501, species assumed): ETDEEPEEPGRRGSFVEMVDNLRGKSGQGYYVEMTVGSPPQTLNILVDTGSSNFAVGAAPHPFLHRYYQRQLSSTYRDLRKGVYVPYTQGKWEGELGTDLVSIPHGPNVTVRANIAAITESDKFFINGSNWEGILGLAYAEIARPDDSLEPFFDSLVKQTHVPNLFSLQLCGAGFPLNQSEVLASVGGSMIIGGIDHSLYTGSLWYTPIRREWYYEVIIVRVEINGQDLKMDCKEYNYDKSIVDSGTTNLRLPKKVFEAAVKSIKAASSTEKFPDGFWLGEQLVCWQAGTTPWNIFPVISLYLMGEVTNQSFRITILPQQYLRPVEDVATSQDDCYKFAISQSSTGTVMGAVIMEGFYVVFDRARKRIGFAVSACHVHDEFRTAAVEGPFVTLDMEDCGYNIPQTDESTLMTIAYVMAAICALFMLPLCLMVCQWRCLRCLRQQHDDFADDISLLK
Method: In Vitro Enzymatic BACE FRET (Fluorescence Resonance Energy Transfer) Assay (Enzyme Assay Data in Table 1)
The assay buffer used in this screen is 0.05 M acetate, pH 4.2, 10% DMSO final, 100 uM genapol (which is a nonionic detergent, below its Critical Micelle Concentration). […] The assay is effectively started by the addition of FRET substrate (50 nM) and the combination is incubated for one hour. The FRET assay is terminated with by addition of Tris buffer, which raises the pH to neutrality, and the fluorescence is determined. The FRET substrate is a peptide with commercially available fluorophore and quencher, on opposite sides of the BACE cleavage site. Proteolytic cleavage of the FRET substrate releases quenching of fluorescence (excitation […] and emission […]).

Row | SMILES | IC50 ([1]; Homo sapiens, HEK293, 24 h) [nM] | IC50 (BACE1) [nM] | IC50 [1] [nM]
1 | C=CC[C@H](NC(=O)COC)[C@H](O)CN[C@H]1CC2(CCC2)Oc2ccc(CC(C)C)cc21 [Example 35, N-((1S)-1-((1R)-1-hydroxy-2-(((4S)-6-(2-methylpropyl)-3,4-dihydrospiro[chromene-2,1′-cyclobutan]-4-yl)amino)ethyl)-3-buten-1-yl)-2-(methyloxy)acetamide] | 624 | 104 | 
2 | C#CC[C@H](NC(=O)c1cc(F)cc(F)c1)[C@H](O)CN[C@H]1CC2(CCC2)Oc2ncc(CC(C)(C)C)cc21 [Example 36, N-((1S)-1-((1R)-2-(((4′S)-6′-(2,2-dimethylpropyl)-3′,4′-dihydrospiro[cyclobutane-1,2′-pyrano[2,3-b]pyridin]-4′-yl)amino)-1-hydroxyethyl)-3-butyn-1-yl)-3,5-difluorobenzamide] | 4160 | 228 | 
3 | C#CCC(NC(=O)C1CCC(=O)O1)C(O)CNC1CC2(CCC2)Oc2ncc(CC(C)(C)C)cc21 [Example 37, (2R)-N-((1S)-1-((1R)-2-(((1s,3S,4′S)-6′-(2,2-dimethylpropyl)-3′,4′-dihydrospiro[cyclobutane-1,2′-pyrano[2,3-b]pyridin]-4′-yl)amino)-1-hydroxyethyl)-3-butyn-1-yl)-5-oxotetrahydro-2-furancarboxamide] | 133 | 18 | 
4 | C=CC[C@H](NC(C)=O)[C@H](O)CN[C@H]1CC2(CCC2)Oc2ncc(CC(C)C)cc21 [Example 38, N-((1S)-1-((1R)-1-hydroxy-2-(((4′S)-6′-(2-methylpropyl)-3′,4′-dihydrospiro[cyclobutane-1,2′-pyrano[2,3-b]pyridin]-4′-yl)amino)ethyl)-3-buten-1-yl)acetamide] | 85 | 81 | 
5 | C=CC[C@H](NC(=O)C1CC(=O)N(C2CCC2)C1)[C@H](O)CN[C@H]1CC2(CCC2)Oc2ncc(CC(C)C)cc21 (stereo partly drawn) [Example 40, 1-cyclobutyl-N-((1S)-1-((1R)-1-hydroxy-2-(((4′S)-6′-(2-methylpropyl)-3′,4′-dihydrospiro[cyclobutane-1,2′-pyrano[2,3-b]pyridin]-4′-yl)amino)ethyl)-3-buten-1-yl)-5-oxo-3-pyrrolidinecarboxamide] | 6 | 6 | 
6 | C=CC[C@H](NC(=O)COC)[C@H](O)CNC1CC2(CC(F)(F)C2)Oc2ncc(CC(C)(C)C)cc21 (stereo partly drawn) [Example 41, N-((1S)-1-((1R)-2-((6′-(2,2-dimethylpropyl)-3,3-difluoro-3′,4′-dihydrospiro[cyclobutane-1,2′-pyrano[2,3-b]pyridin]-4′-yl)amino)-1-hydroxyethyl)-3-buten-1-yl)-2-(methyloxy)acetamide] | 127 | 42 | 
7 | C=CC[C@H](NC(=O)[C@@H](C)OC)[C@H](O)CN[C@H]1CC2(CCC2)Oc2ncc(CC(C)C)cc21 [Example 42, (2R)-N-((1S)-1-((1R)-1-hydroxy-2-(((4′S)-6′-(2-methylpropyl)-3′,4′-dihydrospiro[cyclobutane-1,2′-pyrano[2,3-b]pyridin]-4′-yl)amino)ethyl)-3-buten-1-yl)-2-(methyloxy)propanamide] | 269 | 99 | 
8 | CCC[C@H](NC(C)=O)[C@H](O)CN[C@H]1CC2(CCC2)Oc2ncc(CC(C)(C)C)cc21 [Example 43, N-((1S)-1-((1R)-2-(((4′S)-6′-(2,2-dimethylpropyl)-3′,4′-dihydrospiro[cyclobutane-1,2′-pyrano[2,3-b]pyridin]-4′-yl)amino)-1-hydroxyethyl)butyl)acetamide] | 167 | 83 | 

Now from value to molecule:

Row | IC50 ([1]; Homo sapiens, HEK293, 24 h) [nM] | IC50 (BACE1) [nM] | IC50 [1] [nM] | SMILES
9 | 6340 | 905 |  | C=CC[C@H](NC(C)=O)[C@H](O)CN[C@H]1CC2(CCC2)Oc2c1cc(CC(C)(C)C)nc2N(C)C [Example 45, N-((1S)-1-((1R)-2-(((4′S)-8′-(dimethylamino)-6′-(2,2-dimethylpropyl)-3′,4′-dihydrospiro[cyclobutane-1,2′-pyrano[2,3-c]pyridin]-4′-yl)amino)-1-hydroxyethyl)-3-buten-1-yl)acetamide]
10 | 183 | 373 |  | C=CC[C@H](NC(C)=O)[C@H](O)CN[C@H]1CC2(CCC2)Oc2c1cc(CC(C)(C)C)nc2N1CCCC1 [Example 46, N-((1S)-1-((1R)-2-(((4′S)-6′-(2,2-dimethylpropyl)-8′-(1-pyrrolidinyl)-3′,4′-dihydrospiro[cyclobutane-1,2′-pyrano[2,3-c]pyridin]-4′-yl)amino)-1-hydroxyethyl)-3-buten-1-yl)acetamide]
11 | 2820 | 365 |  | C=CC[C@H](NC(=O)COC)[C@H](O)CN[C@H]1CC2(CCC2)Oc2c1cc(CC(C)(C)C)nc2N(C)C [Example 48, N-((1S)-1-((1R)-2-(((4′S)-8′-(dimethylamino)-6′-(2,2-dimethylpropyl)-3′,4′-dihydrospiro[cyclobutane-1,2′-pyrano[2,3-c]pyridin]-4′-yl)amino)-1-hydroxyethyl)-3-buten-1-yl)-2-(methyloxy)acetamide]
12 | 90 | 84 |  | C=CC[C@H](NC(=O)COC)[C@H](O)CN[C@H]1CC2(CCC2)Oc2c1cc(CC(C)(C)C)nc2N1CCCC1 [Example 49, N-((1S)-1-((1R)-2-(((4′S)-6′-(2,2-dimethylpropyl)-8′-(1-pyrrolidinyl)-3′,4′-dihydrospiro[cyclobutane-1,2′-pyrano[2,3-c]pyridin]-4′-yl)amino)-1-hydroxyethyl)-3-buten-1-yl)-2-(methyloxy)acetamide]
13 | ≥ 10000 | 4160 |  | C=CC[C@H](NC(C)=O)[C@H](O)CN[C@H]1C[C@@]2(CC[C@H]2O)Oc2ncc(CC(C)(C)C)cc21 [Example 50, N-((1S)-1-((1R)-2-(((1R,2R,4′S)-6′-(2,2-dimethylpropyl)-2-hydroxy-3′,4′-dihydrospiro[cyclobutane-1,2′-pyrano[2,3-b]pyridin]-4′-yl)amino)-1-hydroxyethyl)-3-buten-1-yl)acetamide]
14 |  |  | 95 | CC=CC[C@H](NC(=O)[C@H]1CCC(=O)O1)[C@H](O)CN[C@H]1C[C@]2(C[C@H](F)C2)Oc2ncc(CC(C)(C)C)cc21 [Example 108, (2R)-N-((1S)-1-((1R)-2-(((1s,3S,4′S)-6′-(2,2-dimethylpropyl)-3-fluoro-3′,4′-dihydrospiro[cyclobutane-1,2′-pyrano[2,3-b]pyridin]-4′-yl)amino)-1-hydroxyethyl)-3-penten-1-yl)-5-oxotetrahydro-2-furancarboxamide]
15 |  | 378 |  | C=CCC(NC(C)=O)C(O)CNC1CC2(CC(C#N)C2)Oc2ncc(CC(C)(C)C)cc21 [Example 114, N-((1S)-1-((1R)-2-(((1r,3S,4′S)-3-cyano-6′-(2,2-dimethylpropyl)-3′,4′-dihydrospiro[cyclobutane-1,2′-pyrano[2,3-b]pyridin]-4′-yl)amino)-1-hydroxyethyl)-3-buten-1-yl)acetamide]
16 |  | 322 |  | C=CC[C@H](NC(C)=O)[C@H](O)CN[C@H]1CC2(CCC2)Oc2ncc(C[C@H](C)C(F)(F)F)cc21 [Example 122, N-((1S)-1-((1R)-1-hydroxy-2-(((4′S)-6′-((2S)-3,3,3-trifluoro-2-methylpropyl)-3′,4′-dihydrospiro[cyclobutane-1,2′-pyrano[2,3-b]pyridin]-4′-yl)amino)ethyl)-3-buten-1-yl)acetamide]
17 |  | 177 |  | C=CC[C@H](NC(=O)COC)[C@H](O)CN[C@H]1CC2(CCC2)Oc2ncc(C[C@H](C)C(F)(F)F)cc21 [Example 123, N-((1S)-1-((1R)-1-hydroxy-2-(((4′S)-6′-((2S)-3,3,3-trifluoro-2-methylpropyl)-3′,4′-dihydrospiro[cyclobutane-1,2′-pyrano[2,3-b]pyridin]-4′-yl)amino)ethyl)-3-buten-1-yl)-2-(methyloxy)acetamide]
18 |  | 412 |  | C=CC[C@H](NC(=O)COC)[C@H](O)CN[C@H]1CC2(CCC2)Oc2ncc(C[C@@H](C)C(F)(F)F)cc21 [Example 124, N-((1S)-1-((1R)-1-hydroxy-2-(((4′S)-6′-((2R)-3,3,3-trifluoro-2-methylpropyl)-3′,4′-dihydrospiro[cyclobutane-1,2′-pyrano[2,3-b]pyridin]-4′-yl)amino)ethyl)-3-buten-1-yl)-2-(methyloxy)acetamide]
